# Columns and labels:
# Assay in all cases: IA-DTB cysteine engagement
# Assay type in all cases: binding
# Conditions in all cases: 22Rv1 cells, 20 μM probe, 1 h, relative to DMSO
# ALG3_C21 = molecular target: T1, ALG3_C21 (Homo sapiens, UniProt Q92685)
# T1 construct: endogenous in cells; host or cells: 22Rv1
# T1 sequence (Q92685 1-438): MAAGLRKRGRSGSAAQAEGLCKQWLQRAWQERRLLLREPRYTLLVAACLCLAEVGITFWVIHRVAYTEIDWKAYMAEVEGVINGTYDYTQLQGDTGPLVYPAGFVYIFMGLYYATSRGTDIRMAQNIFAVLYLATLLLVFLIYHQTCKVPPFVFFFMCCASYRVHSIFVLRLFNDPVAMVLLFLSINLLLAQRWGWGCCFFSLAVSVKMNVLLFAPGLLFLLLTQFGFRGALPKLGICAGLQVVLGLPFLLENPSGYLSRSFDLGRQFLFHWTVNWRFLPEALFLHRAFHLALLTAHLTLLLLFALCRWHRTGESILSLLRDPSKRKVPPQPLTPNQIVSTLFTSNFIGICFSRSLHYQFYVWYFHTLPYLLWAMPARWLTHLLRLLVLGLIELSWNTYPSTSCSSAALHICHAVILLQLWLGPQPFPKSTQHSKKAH
# Method in brief: (§1)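 Probe-exposed cells were lysed, IA-DTB-labeled, trypsinized and streptavidin-enriched. Multiplexed TMT quantitation gave engagement ratios versus DMSO, with non-tryptic peptides excluded and intensities normalized to median summed signal.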
# OCIAD1_C98 = molecular target: T2, OCIAD1_C98 (Homo sapiens, UniProt Q9NX40)
# T2 construct: endogenous in cells; host or cells: 22Rv1
# T2 sequence (Q9NX40 1-245): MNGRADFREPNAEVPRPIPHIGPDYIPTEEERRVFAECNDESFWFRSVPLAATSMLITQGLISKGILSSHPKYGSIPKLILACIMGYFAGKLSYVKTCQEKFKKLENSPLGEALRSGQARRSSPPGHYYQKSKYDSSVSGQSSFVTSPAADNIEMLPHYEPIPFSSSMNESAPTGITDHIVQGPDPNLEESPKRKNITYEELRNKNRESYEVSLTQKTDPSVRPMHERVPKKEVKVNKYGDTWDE
# Method in brief: as §1
# TANC1_C800 = molecular target: T3, TANC1_C800 (Homo sapiens, UniProt Q9C0D5)
# T3 construct: endogenous in cells; host or cells: 22Rv1
# T3 sequence (Q9C0D5 whole entry): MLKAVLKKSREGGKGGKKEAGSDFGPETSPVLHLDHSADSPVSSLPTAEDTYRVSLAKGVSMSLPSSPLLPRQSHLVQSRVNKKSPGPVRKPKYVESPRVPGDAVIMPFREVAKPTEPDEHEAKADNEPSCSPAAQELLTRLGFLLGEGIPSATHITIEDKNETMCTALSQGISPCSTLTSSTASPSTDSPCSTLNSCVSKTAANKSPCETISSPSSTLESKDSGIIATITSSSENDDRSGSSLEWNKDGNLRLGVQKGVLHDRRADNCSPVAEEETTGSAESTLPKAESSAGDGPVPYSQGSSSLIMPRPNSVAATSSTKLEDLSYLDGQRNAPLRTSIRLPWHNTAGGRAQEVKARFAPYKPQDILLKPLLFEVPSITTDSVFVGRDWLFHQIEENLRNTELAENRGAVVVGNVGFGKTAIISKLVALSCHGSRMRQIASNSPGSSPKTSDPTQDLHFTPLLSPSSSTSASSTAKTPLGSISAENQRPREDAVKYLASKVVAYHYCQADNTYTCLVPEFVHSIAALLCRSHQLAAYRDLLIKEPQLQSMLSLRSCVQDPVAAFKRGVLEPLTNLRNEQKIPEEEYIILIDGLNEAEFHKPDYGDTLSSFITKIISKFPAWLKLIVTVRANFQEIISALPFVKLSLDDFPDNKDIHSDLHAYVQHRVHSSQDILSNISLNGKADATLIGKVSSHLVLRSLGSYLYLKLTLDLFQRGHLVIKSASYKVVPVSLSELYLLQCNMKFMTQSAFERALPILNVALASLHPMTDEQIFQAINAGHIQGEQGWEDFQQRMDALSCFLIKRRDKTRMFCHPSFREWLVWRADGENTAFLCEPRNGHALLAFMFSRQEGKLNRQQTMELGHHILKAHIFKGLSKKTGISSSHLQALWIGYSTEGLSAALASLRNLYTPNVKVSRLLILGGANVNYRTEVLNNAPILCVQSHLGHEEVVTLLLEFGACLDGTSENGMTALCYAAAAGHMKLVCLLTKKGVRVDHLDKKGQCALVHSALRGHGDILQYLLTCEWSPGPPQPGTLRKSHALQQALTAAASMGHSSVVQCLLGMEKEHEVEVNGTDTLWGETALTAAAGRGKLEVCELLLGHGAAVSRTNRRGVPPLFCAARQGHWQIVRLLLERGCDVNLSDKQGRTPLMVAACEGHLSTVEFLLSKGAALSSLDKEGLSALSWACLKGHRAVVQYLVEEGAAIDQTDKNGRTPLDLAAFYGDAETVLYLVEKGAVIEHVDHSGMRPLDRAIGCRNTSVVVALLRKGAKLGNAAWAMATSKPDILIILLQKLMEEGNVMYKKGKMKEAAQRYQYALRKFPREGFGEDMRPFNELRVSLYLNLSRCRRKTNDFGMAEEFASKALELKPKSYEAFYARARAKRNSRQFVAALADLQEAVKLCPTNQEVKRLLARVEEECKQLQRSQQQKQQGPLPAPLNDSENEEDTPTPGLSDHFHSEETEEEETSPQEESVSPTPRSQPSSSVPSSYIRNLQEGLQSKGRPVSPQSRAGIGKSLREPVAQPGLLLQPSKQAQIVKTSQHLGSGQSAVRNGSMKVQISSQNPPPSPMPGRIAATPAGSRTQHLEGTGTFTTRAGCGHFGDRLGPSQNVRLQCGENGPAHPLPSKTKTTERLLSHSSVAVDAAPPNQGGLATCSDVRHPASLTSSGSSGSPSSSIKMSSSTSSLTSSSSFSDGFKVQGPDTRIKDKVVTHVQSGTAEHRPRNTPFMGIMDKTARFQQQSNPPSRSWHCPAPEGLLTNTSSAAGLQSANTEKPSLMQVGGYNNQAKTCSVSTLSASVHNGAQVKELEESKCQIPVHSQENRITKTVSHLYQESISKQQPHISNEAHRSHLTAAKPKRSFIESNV
# Method in brief: as §1
# SCAMP4_C20 = molecular target: T4, SCAMP4_C20 (Homo sapiens, UniProt Q969E2)
# T4 construct: endogenous in cells; host or cells: 22Rv1
# T4 sequence (Q969E2 1-229): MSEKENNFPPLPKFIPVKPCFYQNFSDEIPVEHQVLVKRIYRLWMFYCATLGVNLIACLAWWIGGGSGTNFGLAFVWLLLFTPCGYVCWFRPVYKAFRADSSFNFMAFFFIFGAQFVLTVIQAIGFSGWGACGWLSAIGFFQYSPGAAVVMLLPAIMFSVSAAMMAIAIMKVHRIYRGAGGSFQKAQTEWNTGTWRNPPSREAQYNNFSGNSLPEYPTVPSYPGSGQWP
# Method in brief: as §1
# TBC1D13_C282 = molecular target: T5, TBC1D13_C282 (Homo sapiens, UniProt Q9NVG8)
# T5 construct: endogenous in cells; host or cells: 22Rv1
# T5 sequence (Q9NVG8 1-400): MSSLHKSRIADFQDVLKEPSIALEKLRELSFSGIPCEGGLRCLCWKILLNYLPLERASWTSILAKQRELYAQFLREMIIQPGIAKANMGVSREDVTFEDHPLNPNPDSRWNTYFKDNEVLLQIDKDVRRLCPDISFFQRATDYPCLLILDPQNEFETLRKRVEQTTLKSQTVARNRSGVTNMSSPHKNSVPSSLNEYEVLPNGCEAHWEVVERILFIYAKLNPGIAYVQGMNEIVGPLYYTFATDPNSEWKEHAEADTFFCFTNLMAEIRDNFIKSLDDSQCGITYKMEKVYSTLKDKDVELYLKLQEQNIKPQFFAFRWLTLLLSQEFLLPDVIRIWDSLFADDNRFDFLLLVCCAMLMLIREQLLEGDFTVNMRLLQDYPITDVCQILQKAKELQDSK
# Method in brief: as §1
% engagement ALG3_C21 (ALG3_C21) [%],% engagement OCIAD1_C98 (OCIAD1_C98) [%],% engagement TANC1_C800 (TANC1_C800) [%],% engagement SCAMP4_C20 (SCAMP4_C20) [%],% engagement TBC1D13_C282 (TBC1D13_C282) [%],SMILES
90.25,26,−2,80,75.75,"C=CC(=O)N1C[C@@H](c2ccc(Br)cc2)[C@H]1C(=O)Nc1cccc2cccnc12 [MY-1A, (2S,3R)-1-acryloyl-3-(4-bromophenyl)-N-(quinolin-8-yl)azetidine-2-carboxamide]"
68,19,3,85.5,1,"C=CC(=O)N1C[C@H](c2ccc(Br)cc2)[C@@H]1C(=O)Nc1cccc2cccnc12 [MY-1B, (2R,3S)-1-acryloyl-3-(4-bromophenyl)-N-(quinolin-8-yl)azetidine-2-carboxamide]"
84.75,72.5,83.5,100,51.5,"C=CC(=O)N1C[C@H](c2ccc(Br)cc2)[C@H]1C(=O)Nc1cccc2cccnc12 [MY-3B, (2S,3S)-1-acryloyl-3-(4-bromophenyl)-N-(quinolin-8-yl)azetidine-2-carboxamide]"
74.5,12.5,12.5,72.5,−16,"C=CC(=O)N1C[C@H](c2ccc(Br)cc2)[C@H]1C(=O)Nc1cccc2cccnc12 [MY-3A, (2S,3S)-1-acryloyl-3-(4-bromophenyl)-N-(quinolin-8-yl)azetidine-2-carboxamide]"

# Source: patent US20250034216A1, “STEREOSELECTIVE COVALENT LIGANDS FOR ONCOGENIC AND IMMUNOLOGICAL PROTEINS” (The Scripps Research Institute, priority 2021, published 2025)
